“And” between values parts separate entries of the source, which are not always exact repeats. Equal values may be shown once.
What was measured:
healing MCL = test: Local neuropeptide delivery to normally innervated healing MCL: mechanical testing, histomorphology; type: in vivo, rat; settings: for histomorphology (H&E) of healing MCL: Example 7, two weeks of healing; for failure force / ultimate stress: Example 7: normally innervated rats, bilateral MCL rupture, mini-osmotic pump (SP 75, CGRP 10, NPY 65, VIP 100 pg/100 μl)
Protocol: Animal Model and Surgery: Forty female Wistar rats (200-250 g) were divided into five groups.
All rats underwent bilateral MCL rupture. Neuropeptides were then delivered ruptured MCLs unilaterally. Neuropeptide infused mini-osmotic pumps (Alzet Corp.) were implanted subcutaneously into the back of each rat. A small catheter running from the pump was run to an intramuscular space above the MCL and was secured.
Mechanical Testing: Mechanical testing was performed as described in Chapter 2. Briefly, animal hind limbs from all groups (n=5 for all groups) were disarticulated at the hip joint and stored at −80° C. until testing. On the day of testing, MCLs including intact femoral and tibial bone sections were excised for ex vivo testing. Ligament thickness and width was measured optically, and MCL area was estimated with elliptical geometry. For strain measurements, optical markers were placed onto the ligament tissue near the insertion sites. A small preload of 0.1N was applied to the ligaments in order to obtain a uniform starting point. The ligaments were then preconditioned to 1% strain for 10 cycles. After preconditioning, ligaments were pulled to failure at a rate of 10% per second.
Tissue displacement was obtained using video dimensional analysis using equations (1) and (2) supra. The mechanical properties that were examined in this study were maximum force, ultimate stress, strain at failure, elastic modulus, and area. Statistical analysis was performed using paired ttests to compare each treated MCL to its contralateral control (alpha=0.05).
Ligaments were immediately fixed in formalin fixative for three days at room temperature. Specimens were embedded in paraffin, sectioned (6 μm), mounted on slides, and stained with hematoxylin and eosin (H&E).

[1] = test system: bovine articular chondrocytes; test: Bovine chondrocytes proliferation assay (CellTiter 96 AQueous One); type: cell-based; settings: CGRP 100 pg/ml, NPY 50 ng/ml, SP 500 pg/ml, VIP 1 ng/ml
Protocol: (§1) Cartilage chunks were then digested at 37° C. in DMEM containing 0.05% hyaluronidase for 30 minutes, followed by 0.05% collagenase digestion overnight. The digests were filtered through 40-micron nylon mesh and centrifuged at 600×g for 20 minutes. The cell pellets were then resuspended in DMEM and counted using a hemacytometer.
(§2) Cells were plated at 1×10^5 cells/well in 12-well plates (n=9) for proteoglycan assays and at 2×10^4 cells/well in 96-well plates (n=16) for proliferation assays. The culture volumes were 1 ml/well in 12-well plates and 100 μl/well in 96-well plates.
(§3) The plates were incubated at 37° C. in a humidified CO2 incubator for 3 days to allow the cells to recover from the harvesting procedure.
(§4) On Day 3 of treatment, 20 μl of CellTiter 96® AQueous One Solution Cell Proliferation Assay (Promega Corporation, Madison, Wis.) was added to each well of the 96-well cultures for 60 minutes, and cells in the 12-well plates were digested with 0.125 units of papain/well overnight. After the 60-minute incubation, the absorbance of the color generated by the cells in the 96-well plates was measured at wavelength 490 nm.

[2] = test system: bovine articular chondrocytes; test: Bovine chondrocytes glycosaminoglycan assay (DMMB); type: cell-based; settings: Day 3 of treatment, individual wells
Protocol: as §1, §2, §3, §4
Following papain digestion of the cultures in 12-well plates, the amount of glycosaminoglycan (representative of proteoglycans) in each well was measured using the dimethylmethylene blue (DMMB) dye-binding assay. The results were statistically analyzed and plotted.

[3] = test system: Bovine nucleus pulposus cells; test: Bovine nucleus pulposus (intervertebral disc) cell proliferation; type: cell-based; settings: day 1, day 2, day 3
Protocol: Bovine calf spines and femoral condyles were obtained from a slaughterhouse and freshly transported to the laboratory. Nucleus pulposus tissue was carefully dissected, avoiding annular and endplate cartilage tissues, from each disc. Articular cartilage from femoral condyles was dissected in the same manner. […] Cells were harvested by overnight digestion with hyaluronidase and collagenase, followed by filtration. Cells were plated at a density of 1×10^5 cells/ml and incubated at 37° C. in 5% CO2 and 95% air in the presence of each neuropeptide or media only (control). At various time points in growth, cells were collected for proliferation and glycosaminoglycan (GAG) production assays. Varying concentrations of NPs were examined.
Well established colorimetric and luminescent assays (CellTiter 96® AQueous Non-radioactive Cell Proliferation and CellTiter-Glo® Luminescent Cell Viability Assays, Promega, Madison, Wis.) were used to quantify the effect of each NP on cell proliferation. In addition, corresponding cell cultures during growth were digested with papain to release glycosaminoglycans (GAGs). Dimethyl methylene blue (DMMB) colorimetric assays were used to quantify the amount of GAGs in each culture.
Multiple samples for test and control groups were performed simultaneously. Statistical analyses using one way analysis of variance (ANOVA) with large degrees of freedom (n=12 for GAG assays; n=24 for proliferation assays) were performed to establish the significance of differences between test groups and control groups for each day of growth in culture.
The effect of neuropeptides on intervertebral disc cell proliferation was examined in order to elucidate further the pathophysiology of degenerative disc disease. Bovine nucleus pulposus cells were incubated with the same neuropeptides.

Substance | histomorphology (H&E) of healing MCL (healing MCL) | healed MCL strength relative to intact MCL strength (healing MCL; Example 7: SP, two weeks of healing) [%] | failure force (healing MCL; two weeks of healing) | ultimate stress (healing MCL; two weeks of healing) [MPa] | proliferation of articular chondrocytes compared to controls (in words) [1] | Glycosaminoglycan Assay ([2]; SP 500 pg/ml) | disc cell proliferation compared to controls ([3]; CGRP 10 ng/ml, NPY (mcg/ml, SP 5 mcg/ml)) | Glycosaminoglycan Assay ([2]; VIP 1 ng/ml) | disc cell viability ([3]; VIP 100 ng/ml)
Substance P [SP] | greatly improved tissue alignment | 60 | no change | 13.4±8.9 | stimulate proliferation | 8.6 μg/dish and 9.1 μg/dish and 8.373 μg/dish and 7.011 μg/dish and 6.556 μg/dish and 7.192 μg/dish and 7.238 μg/dish and 7.283 μg/dish and 8.01 μg/dish | stimulate disc cell proliferation | – | –
vasoactive intestinal peptide [VIP] | greatly improved tissue alignment | – | 10.2±3.0 N | 5.1±1.6 | stimulate proliferation | – | – | 7.419 μg/dish and 5.966 μg/dish and 6.874 μg/dish and 6.42 μg/dish and 6.965 μg/dish and 3.785 μg/dish and 6.147 μg/dish and 6.511 μg/dish and 8.328 μg/dish | negative influence
